Some test systems named below: COLO 205 colon; RPMI-8226 leukemia; UACC-62 melanoma; SR leukemia; SN12C renal; PC-3 prostate; NCI/ADR-RES ovarian; SK-MEL-2 melanoma; HCT-116 colon; NCI-H460 lung.
Experiment in all cases: DTP human tumour cell line panel, 48 h

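Grown in 96-well plates, cells were treated for 48 hours with each compound at five concentrations. Insufficient inhibition: endpoint recorded as highest concentration tested. Abbreviation: GI50, concentration required for 50% inhibition of growth. The concentration for full growth arrest is given as TGI.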

On to `CC(=O)Nc1ccccc1NC1CC(C)N(c2ccccc2)N1C(C)=O` (stereo not drawn), for which the TGI in the test with COLO 205 colon, in the test on RPMI-8226 leukemia, with UACC-62 melanoma, in the test with SR leukemia, in the test on SN12C renal and with PC-3 prostate was over 10 µM each time.
Consider `COC(=O)C1=C(C(=O)OC)SC2(S1)C(C(=O)OC)=C(C(=O)OC)Sc1c2ssc1=NC(C)(C)C`, for which the TGI was found to be 3.22 µM with COLO 205 colon; 7.73 µM with NCI/ADR-RES ovarian; 2.97 µM in the test on UACC-62 melanoma; 1.91 µM with SR leukemia; 2.82 µM in the test on SK-MEL-2 melanoma; 2.03 µM in the test with HCT-116 colon. For the same molecule, the values for the TGI in the test with SN12C renal and in the test with PC-3 prostate were 2.52 µM and 2.75 µM, respectively.
As for `COc1ccc2nc3cc(Cl)ccc3c(NCCNc3c4ccc(Cl)cc4nc4ccc(OC)cc34)c2c1`, the GI50 in the test on COLO 205 colon was 1.64 µM; in the test on RPMI-8226 leukemia, 2.04 µM; in the test on SK-MEL-2 melanoma it was 1.81 µM; with PC-3 prostate it was 1.83 µM. Also, the total growth inhibition concentration (TGI) in the test on COLO 205 colon came out at 3.39 µM; in the test on RPMI-8226 leukemia, 4.59 µM; with SK-MEL-2 melanoma, 3.5 µM; in the test with PC-3 prostate, 3.45 µM.
Regarding `O=C(CSc1nc2ccccc2c(=O)n1-c1ccccc1)N=Nc1c(O)[nH]c2ccc(F)cc12`, the concentration for total growth inhibition (TGI) in the test on COLO 205 colon was 5.73 µM; in the test on NCI/ADR-RES ovarian, 5.48 µM; with NCI-H460 lung, 4.69 µM; in the test with RPMI-8226 leukemia it was 4.65 µM; with UACC-62 melanoma, 4.82 µM; with SR leukemia it was 4.21 µM. For the same molecule, the figures for the total growth inhibition concentration (TGI) in the test with SK-MEL-2 melanoma, in the test on HCT-116 colon and in the test with PC-3 prostate were 3.59 µM, 4.46 µM and 3.77 µM, respectively.
For the molecule `CC(C)(C)OC(=O)NCC(=O)N1CCN(C(=O)CNC(=O)OC(C)(C)C)CC1`, the TGI in the test on COLO 205 colon, with NCI/ADR-RES ovarian, in the test with RPMI-8226 leukemia, with UACC-62 melanoma, with SR leukemia and in the test with SK-MEL-2 melanoma was over 100 µM throughout. The TGI in the test with HCT-116 colon, in the test with SN12C renal and in the test with PC-3 prostate was over 100 µM throughout.
With `O=c1c2ccccc2nc(N/N=C/c2ccccc2O)n1-c1ccccc1`, the TGI in the test on COLO 205 colon is over 100 µM; in the test on NCI/ADR-RES ovarian, 7.71 µM; in the test with NCI-H460 lung it was over 100 µM; in the test on UACC-62 melanoma, 7.1 µM; with SK-MEL-2 melanoma it was over 100 µM; in the test with HCT-116 colon, 8.8 µM. Moreover, the concentration for total growth inhibition (TGI) in the test on SN12C renal and with PC-3 prostate was over 100 µM throughout.
Consider `NCCCNCCCCN1CC1`, for which the TGI in the test with COLO 205 colon is 4.06 µM; in the test with NCI/ADR-RES ovarian it was over 20.7 µM; in the test on NCI-H460 lung, over 100 µM; in the test with RPMI-8226 leukemia it was over 21.3 µM; in the test on UACC-62 melanoma, 68.8 µM; in the test with HCT-116 colon, over 100 µM. Moreover, the TGI with PC-3 prostate is over 34.9 µM.
Consider `CCC(NC1=NCCO1)c1cccs1` (stereo not drawn), for which the TGI with COLO 205 colon was 34.9 µM; with NCI/ADR-RES ovarian, over 100 µM; in the test on NCI-H460 lung it was 46 µM; in the test on RPMI-8226 leukemia, over 100 µM; in the test on UACC-62 melanoma, 30.8 µM; with SR leukemia it was over 100 µM. Besides, the TGI was determined as 29.4 µM in the test with SK-MEL-2 melanoma, 27.1 µM in the test on HCT-116 colon and 33.9 µM in the test with PC-3 prostate.
Regarding `CSc1scc2c1/C(=N/NC(N)=O)CCC2`, the TGI in the test with COLO 205 colon is over 100 µM; with NCI/ADR-RES ovarian it was 73.4 µM; with NCI-H460 lung, over 100 µM; in the test on RPMI-8226 leukemia, over 100 µM; in the test on UACC-62 melanoma it was over 100 µM; in the test on SK-MEL-2 melanoma it was over 100 µM. The TGI with HCT-116 colon, in the test on SN12C renal and with PC-3 prostate was over 100 µM each time.
Consider `CC1=NN(c2nc(N)nc(CF)n2)C(C)(C)C1`, for which the total growth inhibition concentration (TGI) with COLO 205 colon, in the test with NCI/ADR-RES ovarian, in the test with NCI-H460 lung, with RPMI-8226 leukemia, in the test with UACC-62 melanoma and in the test with SR leukemia was over 100 µM throughout. For the same molecule, the TGI in the test with SK-MEL-2 melanoma, in the test on HCT-116 colon and in the test on PC-3 prostate was over 100 µM throughout.
As for `NC1CC=C(COC(=O)C(O)(c2ccccc2)C2CC2)CC1` (stereo not drawn), the TGI in the test with COLO 205 colon, in the test on NCI/ADR-RES ovarian, with RPMI-8226 leukemia, in the test with UACC-62 melanoma, with SR leukemia and in the test with HCT-116 colon was over 100 µM each time. Besides, the total growth inhibition concentration (TGI) in the test with SN12C renal and in the test with PC-3 prostate was over 100 µM in each case.
As to `S=c1[nH]c2ccc(I)cc2c(=S)n1Cc1ccccc1`, the concentration for total growth inhibition (TGI) is 25.2 µM with COLO 205 colon; 25.5 µM with NCI/ADR-RES ovarian; 16.3 µM with NCI-H460 lung; 12.1 µM in the test with RPMI-8226 leukemia; 14.9 µM in the test on SR leukemia; 18 µM in the test with SK-MEL-2 melanoma. Moreover, the values for the TGI in the test on HCT-116 colon, with SN12C renal and in the test on PC-3 prostate were 13.2 µM, 13.4 µM and 15.5 µM, respectively.
For `O=C(O)C(=O)/C=C(\O)c1ccc(Br)cc1`, the TGI in the test on COLO 205 colon, in the test on NCI/ADR-RES ovarian, with NCI-H460 lung, with RPMI-8226 leukemia, with UACC-62 melanoma and with SK-MEL-2 melanoma was over 100 µM each time. In addition, the TGI in the test with HCT-116 colon, in the test on SN12C renal and with PC-3 prostate was over 100 µM throughout.
In the case of `CNc1ncnc2c1cnn2Cc1cn(COCC(O)CO)nn1` (stereo not drawn), the TGI in the test with COLO 205 colon, in the test with NCI/ADR-RES ovarian, in the test on RPMI-8226 leukemia, with UACC-62 melanoma, in the test with SK-MEL-2 melanoma and in the test on HCT-116 colon was over 100 µM throughout. The TGI in the test on SN12C renal and with PC-3 prostate was over 100 µM each time.
Consider `C=C(c1ccccc1)c1ccccc1-c1cc(-c2ccccc2)cc(-c2ccccc2)n1`, for which the TGI in the test on NCI/ADR-RES ovarian, in the test on NCI-H460 lung, in the test on RPMI-8226 leukemia, in the test with UACC-62 melanoma, in the test on SR leukemia and in the test on HCT-116 colon was over 100 µM each time. Besides, the TGI in the test with SN12C renal and with PC-3 prostate was over 100 µM in each case.
Turning to `CCOC(=O)c1c(-c2cccc3ccccc23)c(C#N)c(=S)n(C2OC(COC(C)=O)C(OC(C)=O)C(OC(C)=O)C2OC(C)=O)c1C` (stereo not drawn), the TGI in the test with COLO 205 colon, in the test with NCI/ADR-RES ovarian, in the test with NCI-H460 lung, with UACC-62 melanoma, in the test on SR leukemia and in the test on SK-MEL-2 melanoma was over 100 µM in each case. In addition, the concentration for total growth inhibition (TGI) in the test on HCT-116 colon, in the test with SN12C renal and in the test with PC-3 prostate was over 100 µM throughout.

The values are drawn from PubChem BioAssay (NCI).
